# Experimental data taken from ChEMBL document CHEMBL1201862, “PubChem BioAssay data set” (2004).
#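 Each compound was tested at five concentrations against cells in 96-well plates for 48 hours. GI50 is the concentration that inhibits growth by half.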 The source made the active and inactive calls. Rule as the data show it: active = GI50 up to about 1.1 µM and inactive = higher.
# Tests used:
# Test in all cases: NCI tumour cell line growth inhibition, 48 h
# CAKI-1 = system: CAKI-1
# HCC 2998 = system: HCC 2998
# HCT-116 = system: HCT-116
# HCT-15 = system: HCT-15
# HOP-18 = system: HOP-18
# HOP-62 = system: HOP-62
# IGROV-1 = system: IGROV-1
# Malme-3M = system: Malme-3M
# OVCAR-5 = system: OVCAR-5
# RXF 393 = system: RXF 393
# SF-295 = system: SF-295
# SK-MEL-2 = system: SK-MEL-2
# SN12C = system: SN12C
# UACC-257 = system: UACC-257
# NCI-H23 = system: NCI-H23
# OVCAR-3 = system: OVCAR-3
# SK-MEL-28 = system: SK-MEL-28
# DU-145 = system: DU-145
# MDA-MB-231 = system: MDA-MB-231
# MDA-N = system: MDA-N
SMILES,GI50 (CAKI-1),GI50 (HCC 2998),GI50 (HCT-116),GI50 (HCT-15) [µM],GI50 (HOP-18),GI50 (HOP-62),GI50 (IGROV-1),GI50 (Malme-3M),GI50 (OVCAR-5),GI50 (RXF 393),GI50 (SF-295),GI50 (SK-MEL-2),GI50 (SN12C),GI50 (UACC-257),GI50 (NCI-H23),GI50 (OVCAR-3),GI50 (SK-MEL-28),GI50 (DU-145),GI50 (MDA-MB-231),GI50 (MDA-N)
Cc1cc2c(c(N)c1C)C(=O)c1ccccc1C2=O,14.5 µM (inactive),40.6 µM (inactive),19 µM (inactive),45.8,1.56 µM (inactive),13.9 µM (inactive),12.6 µM (inactive),42.3 µM (inactive),> 100 µM (inactive),29 µM (inactive),27.4 µM (inactive),66.8 µM (inactive),49.1 µM (inactive),87.1 µM (inactive),–,–,–,–,–,–
CC(C)c1ccc(/C=C(\NC(=O)c2ccccc2)c2nc3ccccc3[nH]2)cc1,50.6 µM (inactive),–,31.6 µM (inactive),43.1,26.4 µM (inactive),–,73.8 µM (inactive),79.3 µM (inactive),75.3 µM (inactive),36.5 µM (inactive),–,34.4 µM (inactive),55 µM (inactive),35.2 µM (inactive),26.8 µM (inactive),37.3 µM (inactive),> 10 µM (inactive),–,–,–
Nc1c(-c2nc3ccccc3s2)[n+]([O-])c2ccccc2[n+]1[O-],25.8 µM (inactive),38.1 µM (inactive),24.3 µM (inactive),–,23.5 µM (inactive),22.5 µM (inactive),29.9 µM (inactive),30.4 µM (inactive),> 100 µM (inactive),–,23.6 µM (inactive),29.1 µM (inactive),–,30.8 µM (inactive),20 µM (inactive),23.3 µM (inactive),25.2 µM (inactive),–,–,–
Cc1cc2c(C)nn(Cc3ccccc3)c2c(C(=O)O)c1C,–,> 100 µM (inactive),> 100 µM (inactive),> 100,> 100 µM (inactive),> 100 µM (inactive),> 100 µM (inactive),> 100 µM (inactive),> 100 µM (inactive),> 100 µM (inactive),> 100 µM (inactive),> 100 µM (inactive),> 100 µM (inactive),> 100 µM (inactive),> 100 µM (inactive),> 100 µM (inactive),> 100 µM (inactive),–,–,–
O=C1C2c3[nH]c4ccccc4c3[C@@H]3CCCCCCCCCCC3C2C(=O)N1c1ccccc1 (stereo partly drawn),–,27.5 µM (inactive),–,38.6,41.5 µM (inactive),–,18.7 µM (inactive),–,> 100 µM (inactive),14.8 µM (inactive),16.3 µM (inactive),–,18.6 µM (inactive),–,17.5 µM (inactive),16 µM (inactive),23.2 µM (inactive),–,–,–
CCCC(=O)OC[n+]1ccc2c(C)c3[nH]c4ccccc4c3c(C)c2c1,1.29 µM (inactive),0.611 µM (active),0.118 µM (active),0.274,1.09 µM (active),0.914 µM (active),0.51 µM (active),1.33 µM (inactive),1.04 µM (active),0.067 µM (active),0.43 µM (active),1.51 µM (inactive),0.404 µM (active),1.35 µM (inactive),0.064 µM (active),1.2 µM (inactive),–,–,–,–
COC[C@H](C)/N=C/N1CCc2ccccc2C1(Cc1ccccc1)Cc1ccccc1,16.3 µM (inactive),–,10.8 µM (inactive),11,11 µM (inactive),24.8 µM (inactive),68.1 µM (inactive),11.8 µM (inactive),–,15.2 µM (inactive),14.5 µM (inactive),10.6 µM (inactive),10.3 µM (inactive),13.8 µM (inactive),17.2 µM (inactive),22.1 µM (inactive),11.1 µM (inactive),–,–,–
O=C1C=C(Cl)C(=O)C(c2ccc(Cl)cc2)=C1,17.6 µM (inactive),18.1 µM (inactive),19.3 µM (inactive),18.8,–,21.1 µM (inactive),15 µM (inactive),20.3 µM (inactive),17 µM (inactive),18.4 µM (inactive),45.6 µM (inactive),18.6 µM (inactive),22.7 µM (inactive),18.6 µM (inactive),23.2 µM (inactive),16.6 µM (inactive),20.2 µM (inactive),22 µM (inactive),17.1 µM (inactive),13.3 µM (inactive)
CN(CCNC(=O)c1nn(-c2ccc(Cl)cc2Cl)c2c1Cc1ccccc1-2)CCNC(=O)c1nn(-c2ccc(Cl)cc2Cl)c2c1Cc1ccccc1-2,4.94 µM (inactive),1.75 µM (inactive),2.1 µM (inactive),2.29,–,5.21 µM (inactive),4.53 µM (inactive),1.42 µM (inactive),20 µM (inactive),2.25 µM (inactive),2.43 µM (inactive),2.05 µM (inactive),3.79 µM (inactive),2.12 µM (inactive),5.09 µM (inactive),3.55 µM (inactive),1.97 µM (inactive),4.69 µM (inactive),2.66 µM (inactive),2.25 µM (inactive)
COc1c(C)c2nc3ccccc3nc2c2c(O)ccnc12,> 100 µM (inactive),> 100 µM (inactive),> 100 µM (inactive),> 100,–,23.5 µM (inactive),43.3 µM (inactive),> 100 µM (inactive),> 100 µM (inactive),19.3 µM (inactive),43.2 µM (inactive),> 100 µM (inactive),> 100 µM (inactive),> 100 µM (inactive),55.6 µM (inactive),> 100 µM (inactive),> 100 µM (inactive),34 µM (inactive),> 100 µM (inactive),> 100 µM (inactive)
CCOC(=O)c1ncn(CCc2ccc(Cl)cc2)c1C,80.2 µM (inactive),> 100 µM (inactive),> 100 µM (inactive),> 100,–,> 100 µM (inactive),> 100 µM (inactive),> 100 µM (inactive),> 100 µM (inactive),> 100 µM (inactive),70.8 µM (inactive),> 100 µM (inactive),> 100 µM (inactive),> 100 µM (inactive),> 100 µM (inactive),> 100 µM (inactive),> 100 µM (inactive),> 100 µM (inactive),> 100 µM (inactive),80.5 µM (inactive)
O=C1NC2CCCCC2NC1=C(C(=O)c1ccccc1)C(=O)c1ccccc1 (stereo not drawn),36.4 µM (inactive),70.8 µM (inactive),40.7 µM (inactive),23.3,–,52.6 µM (inactive),26.3 µM (inactive),> 100 µM (inactive),> 100 µM (inactive),> 100 µM (inactive),40.8 µM (inactive),33.6 µM (inactive),20.7 µM (inactive),95.7 µM (inactive),22.4 µM (inactive),67.5 µM (inactive),78.2 µM (inactive),> 100 µM (inactive),24.3 µM (inactive),70.3 µM (inactive)
COc1ccc(/C=C/C(=O)c2c(-c3ccccc3)nn(C)c(=O)c2N2CCCCC2)cc1,31.2 µM (inactive),–,7.31 µM (inactive),20.7,20.1 µM (inactive),–,25 µM (inactive),–,–,12 µM (inactive),21.6 µM (inactive),–,20.8 µM (inactive),–,14 µM (inactive),–,14.9 µM (inactive),–,–,–
CCc1ccc(/N=C\c2cc(OC)c(OC)c(OC)c2)cc1,> 100 µM (inactive),–,> 100 µM (inactive),> 100,> 100 µM (inactive),> 100 µM (inactive),> 100 µM (inactive),> 100 µM (inactive),> 100 µM (inactive),> 100 µM (inactive),> 100 µM (inactive),> 100 µM (inactive),> 100 µM (inactive),> 100 µM (inactive),> 100 µM (inactive),> 100 µM (inactive),> 100 µM (inactive),–,–,–
CC(C)=CCc1ccc2[nH]c3c(c2c1)C(=O)C(=O)C(C)=C3C(O)C(C)O (stereo not drawn),4.38 µM (inactive),6.38 µM (inactive),1.78 µM (inactive),2.32,–,20.3 µM (inactive),2.36 µM (inactive),1.78 µM (inactive),18.4 µM (inactive),2.17 µM (inactive),12.2 µM (inactive),8.2 µM (inactive),8.55 µM (inactive),2.06 µM (inactive),5.4 µM (inactive),2.96 µM (inactive),7.19 µM (inactive),10.5 µM (inactive),3.54 µM (inactive),3.06 µM (inactive)
C=C(C)C(=O)O[C@H]1[C@H]2[C@H](OC(=O)[C@H]2C)[C@H](O)[C@@H](C)[C@@H]2C=CC(=O)[C@]21C,2.55 µM (inactive),2.45 µM (inactive),2.32 µM (inactive),2.04,–,9.06 µM (inactive),2.37 µM (inactive),2.18 µM (inactive),8.61 µM (inactive),1.22 µM (inactive),4.63 µM (inactive),4.13 µM (inactive),2.08 µM (inactive),2.13 µM (inactive),3.71 µM (inactive),4.52 µM (inactive),2.26 µM (inactive),3.9 µM (inactive),4.54 µM (inactive),2.58 µM (inactive)
C=C(CN(C)C)C1(c2ccccc2)CC2(CCCC2)C(=O)O1 (stereo not drawn),> 100 µM (inactive),> 100 µM (inactive),70.3 µM (inactive),76.9,–,> 100 µM (inactive),> 100 µM (inactive),14.7 µM (inactive),> 100 µM (inactive),> 100 µM (inactive),> 100 µM (inactive),> 100 µM (inactive),> 100 µM (inactive),49.2 µM (inactive),27.2 µM (inactive),38.7 µM (inactive),> 100 µM (inactive),> 100 µM (inactive),64.4 µM (inactive),44.8 µM (inactive)
